Measurements: patent US20200190592A1, “PME-1 AS A BIOMARKER TO PREDICT AND DIAGNOSE AN INCREASED RISK OF ENDOMETRIAL CANCER AND GENE SILENCING OF PME-1 TO INHIBIT EPITHELIAL TO MESENCHYMAL TRANSITION” (Medical Diagnostic Laboratories, L.L.C., priority 2018, published 2020)
“Also recorded” adds a separate entry of the source.

Experiments:
Assay type in all cases: cell-based, human
PME-1 = test: Western blot of PME-1 protein in RL95-2 cells; details: GAPDH loading control, listed as shRNA #2
Source text: We prepared RL95-2 cell lines expressing empty vector (control), over-expressing PME-1 (+PME-1), or expressing shRNA against PPME1, the gene that codes for PME-1 protein (−PME-1). Using these cells, we confirmed the appropriate level of PME-1 via real-time RT-PCR (data not shown) and Western blot analysis (FIG. 8). GAPDH was used as a loading control.
We also prepared two different shRNAs targeted against PME-1.
Lentivirus was produced in HEK293T cell lines with pLKO shRN vectors (Thermo Scientific, cat. no. RHS4533; Waltham, Mass.) and pCDH-CuO-GFP-Puro vectors (System Biosciences, Inc., cat. no. QM513B-1; Mountain View, Calif.) with pPACKH1 packaging plasmid (System Biosciences, Inc., cat, no. LV050A-1). shRNA sequences are in the Table 2. Lentivirus was collected and concentrated with Peg-IT concentrating solution (System Biosciences, Inc.). 5×10^6 ifu/ml lentivirus was added to cell cultures with growth media and 8 μg/ml PolyBrene (Sigma Aldrich). Media was changed to full growth media after 24 hrs and to selection media containing antibiotic after 48 hrs (5 μg/ml puromycin) (Invivogen) for 10 days.
15 μg of protein was used for western analysis. […]

phospho-ERK = test: Western analysis of phospho-ERK in RL95-2 cells; details: compared to control cells; total ERK as reference
Protocol: When PME-1 was depleted with shRNA, there was a decrease in phospho-ERK compared to control cells.
(§1) 15 μg of protein was used for western analysis. PME-1 antibody (Santa Cruz) and COXIV (Cell Signaling Technologies) were used for detection of proteins and the blots were developed using chemiluminescence (Pierce ECL Western Blotting Substrate—Thermo Scientific) on the GE ImageQuant LAS 4000. For analysis of Akt, ERK, and β-catenin signaling in tissue culture, western analyses were completed as follows. RL95-2 cells stably infected with lentivirus expressing constructs were selected with puromycin (Invivogen). The cells were incubated with either 50 μM Akt inhibitor (LY 294002, Cell Signaling Technologies) or 40 μM ERK inhibitor (V0126, Cell Signaling Technologies) for 1-2 hours at 37° C. 1.5× Laemelli buffer (0.5 M Tris pH6.8, […], 10% sodium dodecyl sulfate, 100 mM EDTA) was used to prepare cell lysates. 20 μg of protein was used for western analysis. Primary antibodies used were: P-Akt (Ser473), P-Akt (Thr308), pan-Akt, P-ERK (Thr202/204), total ERK (Cell Signaling Technologies), PME-1 (Santa Cruz), phospho-β-catenin (Ser45, Cell Signaling Technologies), phospho-β-catenin (Ser33/37/Thr41, Cell Signaling Technologies), β-catenin (Abcam), DcR2 (Abcam), and GAPDH (Abcam). All experiments were repeated several times with similar results.

phospho-Akt = test: Western analysis of Akt phosphorylation in RL95-2 cells; details: PME-1 knocked down
Protocol: We observed a similar trend for the Akt signaling pathway. There was an increase in phosphorylation of Akt on threonine 308 (T308) when PME-1 was over-expressed compared to control. There was a decrease in phosphorylation of Akt when PME-1 was knocked down (FIG. 18B). PME-1 over-expression specifically increases the phosphorylation of Akt on T308, but not serine 473 (S473). Importantly, when cells were incubated with upstream inhibitors of Akt phosphorylation (LY294002), there was a decrease in the phospho-forms (FIGS. 18A and 18B), as expected.
as §1, with “20 μg of protein was used for western analysis. Primary antibodies used were: P-Akt (Ser473), P-Akt (Thr308), pan-Akt, P-ERK (Thr202/204), total ERK (Cell Signaling Technologies), PME-1 (Santa Cruz), phospho-β-catenin (Ser45, Cell Signaling Technologies), phospho-β-catenin (Ser33/37/Thr41, Cell Signaling Technologies), β-catenin (Abcam), DcR2 (Abcam), and GAPDH (Abcam). All experiments were repeated several times with similar results.” left out

β-catenin = test: Western analysis of β-catenin in RL95-2 cells
Source text: We performed Western blot analysis in RL95-2 cells that were expressing empty vector (Control), over-expressing PME-1 (+PME-1) or expressing shRNA against PME-1 (−PME-1) to examine the protein stability of β-catenin (FIG. 19A). We observed a decrease in total β-catenin protein in cells that were over-expressing PME-1. This observation is correlated with the predicted ubiquitylation of β-catenin and its degradation. Conversely, a depletion of PME-1 led to stabilization of total β-catenin (FIG. 19A).
In another series of study, we performed a similar assay in which cells were treated with 10 μM MG-132 prior to protein extraction. MG-132 is a proteasome inhibitor and therefore allows for the accumulation of phosphorylated β-catenin, which is normally quickly degraded, to be detected by western analysis.
15 μg of protein was used for western analysis. PME-1 antibody (Santa Cruz) and COXIV (Cell Signaling Technologies) were used for detection of proteins and the blots were developed using chemiluminescence (Pierce ECL Western Blotting Substrate—Thermo Scientific) on the GE ImageQuant LAS 4000. For analysis of Akt, ERK, and β-catenin signaling in tissue culture, western analyses were completed as follows. RL95-2 cells stably infected with lentivirus expressing constructs were selected with puromycin (Invivogen). […]

PPME1 = test: qRT-PCR of PPME1 (PME-1) expression in RL95-2 cells; details: RL95-2, normalized to 18S, vs shSCR
Protocol: In this study, we transfected RL95-2 cells to express empty vector (Control), over-expressing PME-1 (+PME-1) or expressing shRNA against PME-1 (−PME-1) followed by serum starvation for 24 hours. Afterwards, either vehicle or TGF-β treatment was performed at the end of the 24 hours. TGF-β was used to induce cells to initiate the EMT program. Gene expression analysis was conducted using quantitative real-time PCR.
(§2) Using RL95-2 endometrial cancer cells, we overexpressed PME-1 (FIG. 21A) or depleted PME-1 with shRNA (FIG. 21B) and confirmed that PME-1 was appropriately expressed.
(§3) Total RNA was extracted with Qiagen RNAEasy kit from RL95-2 cells. cDNA was synthesized using 500 ng-1 μg of RNA and SuperScript VILO c-DNA mix (Life Technologies). Taqman probes and PCR-mix were purchased from Life Technologies. All samples were run in triplicates. Results are representative of three independent experiments in which genes of interest were normalized to the house-keeping gene, 18S or GAPDH, where fold-change was calculated using the ddCt method.

SFRP1 = test: qRT-PCR of SFRP1 expression in RL95-2 cells; details: RL95-2, normalized to 18S
Protocol: as §2, §3

WNT3 and WNT3A = test: qRT-PCR of WNT3 and WNT3A expression in RL95-2 cells; details: RL95-2, normalized to 18S
Protocol: as §2, §3

ECC-1 cells = test: Foci formation analysis in ECC-1 cells; details: 10 days
Protocol: We performed a foci formation analysis by transfecting (i) empty FLAG vector, (ii) FLAG-PPP2CA, (iii) FLAG-PPP4C, or (iv) FLAG-PPP6C into ECC-1 cells that stably expressed either (i) shSCR (non-targeting shRNA, black bars) or (ii) shPPME1 (depletes PME-1 levels, white bars) (FIG. 24).
1,000 cells were plated in a six well tissue culture dish in selection media (to include 5 μg/ml puromycin) (InvivoGen). Cells were allowed to adhere and grow in a 5% CO2, 37° C. incubator for 10 to 14 days. Media was replaced every fourth day. Cells were stained with 1% crystal violet (Sigma Aldrich) for five minutes and rinsed with PBS. Colonies were counted and data is presented as the percentage of change compared to the control. All Experiments were repeated at least three times.

shPPME1 no. 2: shRNA targeting PPME1, SEQ ID NO: 2: GCAGCGATTATTAGTAGAGTT, bp 289-309; used for all subsequent experiments (guide GCAGCGATTATTAGTAGAGTT; listed as Homo sapiens)
PME-1 levels via Western blot analysis (PME-1): significantly decreased; also recorded: best depletion | phospho-ERK (phospho-ERK): decrease | phosphorylation of Akt (phospho-Akt): decrease | total β-catenin (β-catenin; absence of MG-132): stabilization | phosphorylated β-catenin (β-catenin; cells treated with 10 μM MG-132, compared to control cells): did not lead to an increase | PME-1 knocked down (PPME1): > 50% | SFRP1 expression (SFRP1): significantly increased | SFRP1 expression (SFRP1; listed as shRNA (SEQ ID NO: 2)): significant increase | WNT3 and WNT3A expression (WNT3 and WNT3A): significantly decreased | foci formation (ECC-1 cells; ECC-1, empty FLAG vector, vs shSCR control): significant decrease | foci formation (ECC-1 cells; ECC-1 transfected with PP2A, PP4 or PP6, vs shSCR): significant decrease
